In ChEMBL document CHEMBL5723379, “Affinity On-target Cellular Literature for EUbOPEN Chemogenomic Library” (2024):
Each block holds one compound with its values, some of them ahead of it.

Columns and labels:
Parameters in all cases: mode of action Inhibitor, recommended concentration 1 uM
[1] = molecular target: Na(+)/citrate cotransporter (Homo sapiens, UniProt Q86YT5); assay: Affinity On-target Cellular interaction: (Radiolabelled uptake assay with […], HEK293 cells) EUB0002721a SLC13A5; format: functional, cell-based
Sequence of Na(+)/citrate cotransporter (Q86YT5 whole entry): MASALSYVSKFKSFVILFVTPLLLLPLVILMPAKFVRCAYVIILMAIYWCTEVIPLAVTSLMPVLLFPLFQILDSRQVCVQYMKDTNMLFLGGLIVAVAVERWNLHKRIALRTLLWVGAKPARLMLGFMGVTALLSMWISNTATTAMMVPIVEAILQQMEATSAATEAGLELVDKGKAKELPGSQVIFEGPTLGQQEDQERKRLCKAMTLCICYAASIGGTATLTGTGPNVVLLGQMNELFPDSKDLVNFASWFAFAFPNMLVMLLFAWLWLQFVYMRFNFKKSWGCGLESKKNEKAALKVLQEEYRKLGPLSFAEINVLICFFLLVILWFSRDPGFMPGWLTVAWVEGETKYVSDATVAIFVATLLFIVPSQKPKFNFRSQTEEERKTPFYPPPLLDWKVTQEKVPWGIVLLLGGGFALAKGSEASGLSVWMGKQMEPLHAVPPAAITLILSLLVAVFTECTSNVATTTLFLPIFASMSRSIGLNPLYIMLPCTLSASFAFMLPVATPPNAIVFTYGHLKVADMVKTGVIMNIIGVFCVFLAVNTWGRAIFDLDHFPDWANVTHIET

[2] = molecular target: Sodium/hydrogen exchanger 1 (Homo sapiens, UniProt P19634); assay: Affinity On-target Cellular interaction: ([Na+]uptake assay, PS-120 fibroblasts) EUB0002781aCl SLC9A1; format: functional, cell-based, PS120
Sequence of Sodium/hydrogen exchanger 1 (P19634 whole entry): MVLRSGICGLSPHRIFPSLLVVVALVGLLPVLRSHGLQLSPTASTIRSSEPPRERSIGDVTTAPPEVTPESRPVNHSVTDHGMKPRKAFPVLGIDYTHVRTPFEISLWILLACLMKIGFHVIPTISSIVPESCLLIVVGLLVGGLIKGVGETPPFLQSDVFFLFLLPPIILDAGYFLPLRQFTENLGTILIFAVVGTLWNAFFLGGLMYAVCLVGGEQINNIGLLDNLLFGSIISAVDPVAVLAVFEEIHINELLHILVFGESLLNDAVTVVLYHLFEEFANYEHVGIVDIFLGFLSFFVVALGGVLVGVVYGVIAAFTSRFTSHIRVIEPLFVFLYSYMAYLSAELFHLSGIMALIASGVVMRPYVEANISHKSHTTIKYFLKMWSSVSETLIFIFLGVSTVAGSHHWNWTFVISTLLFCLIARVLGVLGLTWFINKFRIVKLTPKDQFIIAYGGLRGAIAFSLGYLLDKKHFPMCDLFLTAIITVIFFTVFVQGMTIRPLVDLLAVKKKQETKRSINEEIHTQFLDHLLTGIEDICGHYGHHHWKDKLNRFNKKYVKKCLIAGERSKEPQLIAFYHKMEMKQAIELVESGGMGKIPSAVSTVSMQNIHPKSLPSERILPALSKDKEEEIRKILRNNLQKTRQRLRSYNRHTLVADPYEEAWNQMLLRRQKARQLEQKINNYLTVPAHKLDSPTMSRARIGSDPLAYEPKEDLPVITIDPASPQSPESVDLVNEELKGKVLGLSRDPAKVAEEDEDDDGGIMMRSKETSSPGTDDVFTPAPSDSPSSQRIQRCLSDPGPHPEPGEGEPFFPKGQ

[3] = molecular target: Sodium/hydrogen exchanger 3 (Homo sapiens, UniProt P48764); assay: Affinity On-target Cellular interaction: (Inhibition of Na+/H+ exchange, detection of fluorescence changes in acridine orange pH indicator, mouse fibroblast L cell line) EUB0002709aCl SLC9A3; format: functional, cell-based, LAP1
Sequence of Sodium/hydrogen exchanger 3 (P48764 whole entry): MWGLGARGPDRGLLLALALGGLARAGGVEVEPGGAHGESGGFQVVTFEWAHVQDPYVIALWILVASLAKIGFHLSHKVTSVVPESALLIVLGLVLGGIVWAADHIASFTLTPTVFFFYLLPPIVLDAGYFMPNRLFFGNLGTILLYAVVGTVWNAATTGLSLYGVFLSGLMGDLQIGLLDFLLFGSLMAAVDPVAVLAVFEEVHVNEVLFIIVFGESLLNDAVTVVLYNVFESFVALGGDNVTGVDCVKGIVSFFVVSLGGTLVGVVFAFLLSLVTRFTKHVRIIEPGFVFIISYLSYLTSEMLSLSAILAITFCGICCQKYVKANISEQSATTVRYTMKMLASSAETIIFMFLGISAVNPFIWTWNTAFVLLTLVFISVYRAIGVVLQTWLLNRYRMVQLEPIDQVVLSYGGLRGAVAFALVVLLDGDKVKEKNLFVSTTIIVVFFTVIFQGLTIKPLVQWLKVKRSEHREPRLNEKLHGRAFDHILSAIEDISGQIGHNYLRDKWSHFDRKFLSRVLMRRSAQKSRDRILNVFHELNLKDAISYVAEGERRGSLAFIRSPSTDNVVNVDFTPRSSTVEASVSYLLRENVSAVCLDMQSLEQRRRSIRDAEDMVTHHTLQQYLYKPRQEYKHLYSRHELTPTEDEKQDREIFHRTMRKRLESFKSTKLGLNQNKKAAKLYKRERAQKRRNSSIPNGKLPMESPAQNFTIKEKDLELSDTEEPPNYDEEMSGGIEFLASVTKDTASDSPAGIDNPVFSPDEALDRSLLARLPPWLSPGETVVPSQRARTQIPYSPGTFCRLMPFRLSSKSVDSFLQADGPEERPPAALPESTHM

Acid ceramidase [4] = molecular target: T1, Acid ceramidase (Homo sapiens, UniProt Q13510); assay: Affinity On-target Cellular interaction: (Inhibition of ASAH1 in A375 cell lysates overexpressing ASAH1) EUB0002722a ASAH1; format: functional, subcellular, A-375
T1 sequence (Q13510 22-142 limits assumed): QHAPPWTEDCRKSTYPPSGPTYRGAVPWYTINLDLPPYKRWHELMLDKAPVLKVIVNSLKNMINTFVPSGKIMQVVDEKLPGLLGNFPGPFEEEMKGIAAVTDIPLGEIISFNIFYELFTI
T1 sequence (Q13510 143-395 limits assumed): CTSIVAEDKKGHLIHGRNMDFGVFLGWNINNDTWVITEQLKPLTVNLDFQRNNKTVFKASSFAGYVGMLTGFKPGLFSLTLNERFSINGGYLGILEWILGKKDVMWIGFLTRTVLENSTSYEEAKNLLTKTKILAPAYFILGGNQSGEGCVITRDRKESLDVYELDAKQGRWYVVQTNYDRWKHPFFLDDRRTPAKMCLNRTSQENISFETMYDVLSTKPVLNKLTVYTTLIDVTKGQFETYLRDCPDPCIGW

Dipeptidyl peptidase 2 [5] = molecular target: T2, Dipeptidyl peptidase 2 (Homo sapiens, UniProt Q9UHL4); assay: (§1) Affinity On-target Cellular interaction: (inhibition of fluorogenic substrate cleavage, U937 cell) EUB0002750aCl DPP7; format: functional, cell-based, U-937
Dipeptidyl peptidase 2 [6] = molecular target: T2, Dipeptidyl peptidase 2; assay: as §1; format: functional, cell-based, U-937; remark: listed apart in the source
[7] = molecular target: Monocarboxylate transporter 8 (Homo sapiens, UniProt P36021); assay: Affinity On-target Cellular interaction: (Inhibition of radiolabelled [125I]T3 uptake by target expressed in MDCK1 cells) EUB0002712a SLC16A2; format: functional, cell-based, MDCK-I
Sequence of Monocarboxylate transporter 8 (P36021 whole entry): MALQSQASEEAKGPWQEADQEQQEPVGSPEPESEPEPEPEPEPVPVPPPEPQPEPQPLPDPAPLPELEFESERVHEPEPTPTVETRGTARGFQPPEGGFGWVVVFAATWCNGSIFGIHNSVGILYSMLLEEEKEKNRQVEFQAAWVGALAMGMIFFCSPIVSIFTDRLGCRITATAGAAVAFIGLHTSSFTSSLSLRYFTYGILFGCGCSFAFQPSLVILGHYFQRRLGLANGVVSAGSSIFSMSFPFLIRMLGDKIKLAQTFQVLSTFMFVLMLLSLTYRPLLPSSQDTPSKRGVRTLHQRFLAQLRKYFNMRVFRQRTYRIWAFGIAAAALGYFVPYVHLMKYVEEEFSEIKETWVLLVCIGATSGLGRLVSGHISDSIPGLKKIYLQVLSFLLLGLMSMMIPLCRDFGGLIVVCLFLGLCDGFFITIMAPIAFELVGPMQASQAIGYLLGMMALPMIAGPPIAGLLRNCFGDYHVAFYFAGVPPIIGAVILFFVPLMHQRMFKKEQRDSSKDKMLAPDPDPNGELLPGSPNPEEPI

Acid ceramidase [8] = molecular target: T1, Acid ceramidase; assay: Affinity On-target Cellular interaction: (Inhibition of ASAH1 in A375 cell lysates overexpressing ASAH1) EUB0002723a ASAH1; format: functional, subcellular, A-375
[9] = molecular target: T3, Monocarboxylate transporter 4 (Homo sapiens, UniProt O15427); assay: (§2) Affinity On-target Cellular interaction: (Inhibition of lactate import in MDA-MB-231 cells) EUB0002761a SLC16A3; format: functional, cell-based
T3 sequence (O15427 whole entry): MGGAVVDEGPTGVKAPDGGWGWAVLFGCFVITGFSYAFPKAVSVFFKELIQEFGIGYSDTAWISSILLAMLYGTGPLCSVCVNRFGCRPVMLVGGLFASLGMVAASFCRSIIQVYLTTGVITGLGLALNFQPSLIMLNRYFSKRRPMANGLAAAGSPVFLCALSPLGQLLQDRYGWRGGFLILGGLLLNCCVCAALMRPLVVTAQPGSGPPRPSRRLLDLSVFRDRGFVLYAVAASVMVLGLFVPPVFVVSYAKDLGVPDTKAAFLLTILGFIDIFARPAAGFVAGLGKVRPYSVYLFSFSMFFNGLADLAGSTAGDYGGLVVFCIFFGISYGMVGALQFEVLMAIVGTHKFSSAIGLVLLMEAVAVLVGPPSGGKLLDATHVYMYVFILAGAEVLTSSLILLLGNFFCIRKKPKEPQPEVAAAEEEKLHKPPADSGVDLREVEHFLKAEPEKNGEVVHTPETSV

[10] = molecular target: T3, Monocarboxylate transporter 4; assay: as §2; format: functional, cell-based; remark: listed apart in the source
Zinc transporter SLC39A7 = Zinc transporter SLC39A7 (Homo sapiens, UniProt Q92504); assay: Affinity On-target Cellular interaction: (HES-LUC reporter gene assay, U2OS cells) EUB0002669a SLC39A7; format: functional, cell-based
Sequence of Zinc transporter SLC39A7 (Q92504 whole entry): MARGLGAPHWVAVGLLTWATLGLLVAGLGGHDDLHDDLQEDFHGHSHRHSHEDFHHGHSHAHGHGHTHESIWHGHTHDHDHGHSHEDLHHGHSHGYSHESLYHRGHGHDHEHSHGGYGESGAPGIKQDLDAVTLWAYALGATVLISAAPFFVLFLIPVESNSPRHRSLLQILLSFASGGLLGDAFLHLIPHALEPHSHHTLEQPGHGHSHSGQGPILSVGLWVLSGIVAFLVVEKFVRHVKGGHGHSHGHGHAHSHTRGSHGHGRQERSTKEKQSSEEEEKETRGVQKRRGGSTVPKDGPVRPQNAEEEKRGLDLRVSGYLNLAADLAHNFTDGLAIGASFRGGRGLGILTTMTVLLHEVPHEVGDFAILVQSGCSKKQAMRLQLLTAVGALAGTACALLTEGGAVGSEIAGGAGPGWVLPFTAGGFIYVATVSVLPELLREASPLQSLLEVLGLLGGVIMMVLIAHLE

- IC50 [1]: > 100 µM
Structure (SMILES): O=C(NCc1ccc(Cl)cc1)C1CCN(S(=O)(=O)c2cc(Cl)cc(Cl)c2)CC1

- IC50 [2]: 0.014 µM
Structure (SMILES): N=C(N)NC(=O)c1cnn(-c2cccc3ncccc23)c1C1CC1

- IC50 [9]: 0.0086 µM
- IC50 [10]: 0.019 µM
Structure (SMILES): CC(C)(OCc1cc(-c2cccc(OC3CC3)c2)n(-c2ccccc2Cl)n1)C(=O)O

- IC50 (Zinc transporter SLC39A7): 0.13 µM
Structure (SMILES): O=C1Nc2ccccc2C2(CCN(CC(Cc3ccccc3)Nc3nc4ccc(F)cc4s3)CC2)N1 (stereo unspecified)

The next lines start with the compound.

Structure (SMILES): CC(=Cc1cc(C)ccc1C=C(C)C(=O)NC(=N)N)C(=O)N=C(N)N
- IC50 [3]: 0.02 µM

Structure (SMILES): CCCCCCCCCCCCC/C=C/[C@@H](O)[C@H](CO)NC(=O)CBr
- Ki (Acid ceramidase [4]): 0.0297 µM

Structure (SMILES): N[C@@H](CCNCc1ccc(Cl)cc1)C(=O)N1CCCCC1
- IC50 (Dipeptidyl peptidase 2 [5]): 0.00014 µM
- IC50 (Dipeptidyl peptidase 2 [6]): 0.00021 µM

Structure (SMILES): COc1cc([C@@H]2Oc3c(O)cc([C@H]4Oc5cc(O)cc(O)c5C(=O)[C@@H]4O)cc3[C@H]2CO)ccc1O [SILICRISTIN A]
- IC50 [7]: 0.11 µM

Structure (SMILES): CCCCCCCCCCCCC/C=C/[C@@H](O)[C@H](CO)NC(=O)CCl
- Ki (Acid ceramidase [8]): 0.0402 µM
